Patent publication US11370846B2, “Compositions and methods to regulate Renalase in the treatment of cancer” (Yale University, priority 2014, dated 2022)

Assays:
[1] = system: MiaPaCa2 cell; conditions: pretreatment, MiaPaCa2, WST-1, 72 hrs
Experimental: FIG. 24B is a chart depicting cell viability relative to control: MiaPaCa2 cell serum starved and then treated with BSA (30 μg/ml) or rRNLS (30 μg/ml), with and without pretreatment with MEK1 inhibitor U0126, and cell viability measured 72 hrs later using the WST-1 assay; n=6, * indicates p<0.005.
For some studies, cell viability was determined using the WST-1 reagent (Roche Diagnostics, Indianapolis, Ind., USA) as previously described (Wang et al., 2014 Journal of the American Society of Nephrology. DOI:10.1681/asn.2013060665).

[2] = system: WT mice; experiment: Renal ischemia and reperfusion in WT mice with renalase peptide RP-H220; type: in vivo, mouse; conditions: 30 minutes of renal ischemia and reperfusion
Experimental: FIG. 3 is a chart showing that ERK or AKT inhibition abrogates protective effect of renalase peptide: WT mice subjected to sham surgery or to 30 minutes of renal ischemia and reperfusion; RP-[…] or vehicle (saline) injected 10 minutes before renal ischemia. ERK inhibitor PD98059 or the PI3K/AKT inhibitor wortmannin abrogated RP-[…]'s protective effect.

Compound	effect on rRNLS' protective effect [1]	effect on RP-H220's protective effect [2]
N#CC(=C(/N)Sc1ccccc1N)/C(C#N)=C(\N)Sc1ccccc1N [U0126]	abrogated rRNLS' protective effect	
COc1cccc(-c2cc(=O)c3ccccc3o2)c1N [PD98059]		abrogated RP-H220's protective effect
